The record followed here is ChEMBL document CHEMBL3045371, “Structure-Activity Relationships of the Azole Fungicide Metconazole and Its Related Azolylmethylcycloalkanols” (1999).

The subject of the assay is Fusarium fujikuroi. Briefly: Fungicidal activity against Fusarium fujikuroi assessed as inhibition of mycelial growth incubated for 3 days at 28 degC. Format: functional. Conditions: 72 h.

≈ marks a conversion by molar mass, not a printed value.

Consider `O[C@]1(Cn2cncn2)CCCC[C@@H]1Cc1ccc(Cl)cc1` (relative stereo), for which the EC90 (as a rule, the concentration at which the effect reaches the 90% level) was more than 400 µg/mL.
`CC1(C)CCC[C@H](Cc2ccc(Cl)cc2)[C@@]1(O)Cn1cncn1` (relative stereo): the EC90 came out at 15 µg/mL (≈ 44.9 µM).
For the molecule `CC1(C)CC[C@@H](Cc2ccc(Cl)cc2)[C@@]1(O)Cn1cncn1`, the EC90 was determined as 2 µg/mL (≈ 6.25 µM).
The figure for `CC1(C)CCCC[C@H](Cc2ccc(Cl)cc2)[C@@]1(O)Cn1cncn1` (relative stereo) is 1.3 µg/mL (≈ 3.74 µM).
Consider `O[C@]1(Cn2cncn2)CCCC[C@H]1Cc1ccc(Cl)cc1` (relative stereo), for which the EC90 was 64.3 µg/mL (≈ 210 µM).
The figure for `O[C@]1(Cn2cncn2)CCCCC[C@H]1Cc1ccc(Cl)cc1` (relative stereo) is more than 400 µg/mL; for `CC1(C)CCC[C@@H](Cc2ccc(Cl)cc2)[C@@]1(O)Cn1cncn1` (relative stereo) it is 4.4 µg/mL (≈ 13.2 µM); for `O[C@]1(Cn2cncn2)CCC[C@H]1Cc1ccc(Cl)cc1` (relative stereo) it is 152 µg/mL (≈ 521 µM).
The figure for `O[C@]1(Cn2cncn2)CCC[C@@H]1Cc1ccc(Cl)cc1` (relative stereo) is 2.1 µg/mL (≈ 7.2 µM); for `CC1(C)CCCC[C@@H](Cc2ccc(Cl)cc2)[C@@]1(O)Cn1cncn1` it is 4 µg/mL (≈ 11.5 µM).
As for `O[C@]1(Cn2cncn2)CCCCC[C@@H]1Cc1ccc(Cl)cc1` (relative stereo), the figure is 2.2 µg/mL (≈ 6.88 µM); as for `CC1(C)CC[C@H](Cc2ccc(Cl)cc2)[C@@]1(O)Cn1cncn1` (relative stereo), 0.2 µg/mL (≈ 0.625 µM).
